According to ChEMBL document CHEMBL5678818, “Discovery of potent SOS1 inhibitors that block RAS activation via disruption of the RAS-SOS1 interaction” (Proc Natl Acad Sci U S A, 2019):

Legend:
[1] = molecular target: Serine/threonine-protein kinase 32B (Homo sapiens) (UniProt Q9NY57); assay: Inhibition of YANK2 (unknown origin) assessed as residual activity at 1000 nM by KINOMEscan analysis relative to control
[2] = molecular target: Casein kinase I isoform delta (Homo sapiens) (UniProt P48730); assay: Inhibition of CSNK1D (unknown origin) assessed as residual activity at 1000 nM by KINOMEscan analysis relative to control
[3] = molecular target: Calcium/calmodulin-dependent protein kinase type II subunit beta (Homo sapiens) (UniProt Q13554); assay: Inhibition of CAMK2B (unknown origin) assessed as residual activity at 1000 nM by KINOMEscan analysis relative to control
[4] = test system: Proto-oncogene tyrosine-protein kinase receptor Ret (Homo sapiens), P07949 [V804M]; assay: Inhibition of RET V804M mutant (unknown origin) assessed as residual activity at 1000 nM by KINOMEscan analysis relative to control
[5] = molecular target: Macrophage colony-stimulating factor 1 receptor (Homo sapiens) (UniProt P07333); assay: Inhibition of CSF1R (unknown origin) assessed as residual activity at 1000 nM by KINOMEscan analysis relative to control
[6] = molecular target: CDK4/Cyclin D3 (Homo sapiens) (UniProt P11802+P30281); assay: Inhibition of CDK4-cyclin D3 (unknown origin) assessed as residual activity at 1000 nM by KINOMEscan analysis relative to control; type: protein-complex assay
[7] = molecular target: Dual specificity testis-specific protein kinase 1 (Homo sapiens) (UniProt Q15569); assay: Inhibition of TESK1 (unknown origin) assessed as residual activity at 1000 nM by KINOMEscan analysis relative to control
[8] = molecular target: T1, Mitogen-activated protein kinase kinase kinase 13 (Homo sapiens) (UniProt O43283); assay: Inhibition of LZK (unknown origin) assessed as residual activity at 1000 nM by KINOMEscan analysis relative to control
T1 sequence (whole entry): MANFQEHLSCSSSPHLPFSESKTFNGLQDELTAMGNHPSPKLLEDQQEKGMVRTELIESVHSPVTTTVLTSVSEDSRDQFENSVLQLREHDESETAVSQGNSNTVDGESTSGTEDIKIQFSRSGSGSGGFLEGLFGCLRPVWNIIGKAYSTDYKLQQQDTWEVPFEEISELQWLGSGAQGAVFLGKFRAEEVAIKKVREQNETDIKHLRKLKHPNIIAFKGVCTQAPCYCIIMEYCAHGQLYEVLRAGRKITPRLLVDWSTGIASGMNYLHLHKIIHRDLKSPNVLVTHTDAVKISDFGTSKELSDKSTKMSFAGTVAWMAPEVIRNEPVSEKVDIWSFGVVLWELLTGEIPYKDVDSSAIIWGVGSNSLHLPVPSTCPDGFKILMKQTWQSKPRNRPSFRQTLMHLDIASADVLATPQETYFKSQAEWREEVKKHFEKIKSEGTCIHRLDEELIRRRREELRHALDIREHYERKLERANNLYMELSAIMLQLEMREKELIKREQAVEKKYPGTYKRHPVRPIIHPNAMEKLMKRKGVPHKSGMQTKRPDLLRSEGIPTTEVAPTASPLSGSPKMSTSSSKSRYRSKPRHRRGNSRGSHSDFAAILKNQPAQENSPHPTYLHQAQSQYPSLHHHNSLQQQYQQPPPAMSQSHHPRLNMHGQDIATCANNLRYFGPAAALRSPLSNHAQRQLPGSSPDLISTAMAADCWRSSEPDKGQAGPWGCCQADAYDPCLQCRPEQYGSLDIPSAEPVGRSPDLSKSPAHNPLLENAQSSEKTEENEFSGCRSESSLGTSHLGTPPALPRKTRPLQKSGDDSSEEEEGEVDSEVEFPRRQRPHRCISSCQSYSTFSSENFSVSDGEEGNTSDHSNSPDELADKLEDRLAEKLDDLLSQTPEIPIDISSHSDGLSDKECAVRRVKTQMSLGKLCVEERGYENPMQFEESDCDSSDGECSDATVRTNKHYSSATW

[9] = test system: Epidermal growth factor receptor (Homo sapiens), P00533 [UNDEFINED MUTATION]; assay: Inhibition of EGFR S752-I759del mutant (unknown origin) assessed as residual activity at 1000 nM by KINOMEscan analysis relative to control
[10] = molecular target: T2, Serine/threonine-protein kinase DCLK3 (Homo sapiens) (UniProt Q9C098); assay: Inhibition of DCAMKL3 (unknown origin) assessed as residual activity at 1000 nM by KINOMEscan analysis relative to control
T2 sequence (whole entry): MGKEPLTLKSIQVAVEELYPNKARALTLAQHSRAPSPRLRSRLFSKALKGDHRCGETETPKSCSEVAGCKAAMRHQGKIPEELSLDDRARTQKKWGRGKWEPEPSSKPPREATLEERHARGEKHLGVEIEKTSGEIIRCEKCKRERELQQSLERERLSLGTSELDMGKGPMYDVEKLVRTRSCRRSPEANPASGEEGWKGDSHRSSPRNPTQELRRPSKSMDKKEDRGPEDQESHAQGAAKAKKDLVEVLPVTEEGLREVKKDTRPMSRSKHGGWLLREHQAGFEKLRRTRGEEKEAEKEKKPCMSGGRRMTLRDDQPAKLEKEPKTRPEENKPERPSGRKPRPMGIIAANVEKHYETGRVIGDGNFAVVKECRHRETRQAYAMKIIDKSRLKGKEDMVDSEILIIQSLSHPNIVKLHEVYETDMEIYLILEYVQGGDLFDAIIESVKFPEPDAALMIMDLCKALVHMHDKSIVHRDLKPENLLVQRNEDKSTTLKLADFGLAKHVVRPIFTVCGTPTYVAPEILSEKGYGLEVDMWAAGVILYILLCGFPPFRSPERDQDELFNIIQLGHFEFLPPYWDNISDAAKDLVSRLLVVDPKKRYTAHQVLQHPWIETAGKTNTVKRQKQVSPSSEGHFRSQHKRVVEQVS

Sequence of Dual specificity testis-specific protein kinase 1 (Homo sapiens) (Q15569 whole entry, looked up): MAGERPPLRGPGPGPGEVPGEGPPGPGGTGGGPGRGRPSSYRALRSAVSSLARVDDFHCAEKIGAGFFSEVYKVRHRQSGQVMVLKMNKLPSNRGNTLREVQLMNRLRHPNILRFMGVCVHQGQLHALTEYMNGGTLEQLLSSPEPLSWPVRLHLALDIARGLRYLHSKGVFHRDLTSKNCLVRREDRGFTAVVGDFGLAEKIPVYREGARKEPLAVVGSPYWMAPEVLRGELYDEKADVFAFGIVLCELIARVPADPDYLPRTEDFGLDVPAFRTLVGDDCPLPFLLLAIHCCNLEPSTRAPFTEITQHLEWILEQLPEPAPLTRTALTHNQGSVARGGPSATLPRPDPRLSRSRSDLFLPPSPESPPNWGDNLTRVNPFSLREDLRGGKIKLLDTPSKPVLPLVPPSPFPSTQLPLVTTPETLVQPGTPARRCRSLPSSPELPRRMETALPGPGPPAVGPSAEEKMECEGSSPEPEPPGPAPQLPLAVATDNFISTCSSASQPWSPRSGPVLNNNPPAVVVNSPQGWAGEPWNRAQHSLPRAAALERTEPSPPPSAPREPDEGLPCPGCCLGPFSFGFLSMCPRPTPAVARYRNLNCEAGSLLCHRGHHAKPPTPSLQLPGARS
Sequence of Macrophage colony-stimulating factor 1 receptor (Homo sapiens) (P07333 whole entry): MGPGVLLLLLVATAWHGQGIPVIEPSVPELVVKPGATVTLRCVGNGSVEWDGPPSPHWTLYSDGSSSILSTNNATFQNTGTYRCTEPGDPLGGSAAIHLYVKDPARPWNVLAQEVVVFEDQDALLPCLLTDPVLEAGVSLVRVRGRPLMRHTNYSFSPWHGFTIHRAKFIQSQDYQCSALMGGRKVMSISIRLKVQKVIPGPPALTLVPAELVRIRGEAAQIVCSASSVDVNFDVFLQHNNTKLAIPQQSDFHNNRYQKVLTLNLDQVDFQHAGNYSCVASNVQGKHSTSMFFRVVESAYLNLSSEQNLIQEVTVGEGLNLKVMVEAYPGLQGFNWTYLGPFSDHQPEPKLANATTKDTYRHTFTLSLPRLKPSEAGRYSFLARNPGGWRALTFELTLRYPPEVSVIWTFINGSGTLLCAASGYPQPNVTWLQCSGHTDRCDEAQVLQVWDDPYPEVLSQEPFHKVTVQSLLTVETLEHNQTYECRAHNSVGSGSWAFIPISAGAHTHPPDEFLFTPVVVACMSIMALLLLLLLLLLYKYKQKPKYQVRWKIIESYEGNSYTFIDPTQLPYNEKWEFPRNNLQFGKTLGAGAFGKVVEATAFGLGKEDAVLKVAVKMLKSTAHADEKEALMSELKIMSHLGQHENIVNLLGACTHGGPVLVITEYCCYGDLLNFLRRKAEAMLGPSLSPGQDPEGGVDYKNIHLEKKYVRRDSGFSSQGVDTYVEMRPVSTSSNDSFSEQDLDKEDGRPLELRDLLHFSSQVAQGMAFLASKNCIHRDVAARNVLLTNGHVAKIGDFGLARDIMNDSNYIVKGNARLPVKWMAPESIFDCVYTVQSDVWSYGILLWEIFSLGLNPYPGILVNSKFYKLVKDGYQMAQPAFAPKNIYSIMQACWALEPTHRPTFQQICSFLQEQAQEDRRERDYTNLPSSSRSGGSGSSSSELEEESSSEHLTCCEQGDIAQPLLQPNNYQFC
Sequence of Proto-oncogene tyrosine-protein kinase receptor Ret (Homo sapiens), P07949 [V804M] (P07949 whole entry V804M): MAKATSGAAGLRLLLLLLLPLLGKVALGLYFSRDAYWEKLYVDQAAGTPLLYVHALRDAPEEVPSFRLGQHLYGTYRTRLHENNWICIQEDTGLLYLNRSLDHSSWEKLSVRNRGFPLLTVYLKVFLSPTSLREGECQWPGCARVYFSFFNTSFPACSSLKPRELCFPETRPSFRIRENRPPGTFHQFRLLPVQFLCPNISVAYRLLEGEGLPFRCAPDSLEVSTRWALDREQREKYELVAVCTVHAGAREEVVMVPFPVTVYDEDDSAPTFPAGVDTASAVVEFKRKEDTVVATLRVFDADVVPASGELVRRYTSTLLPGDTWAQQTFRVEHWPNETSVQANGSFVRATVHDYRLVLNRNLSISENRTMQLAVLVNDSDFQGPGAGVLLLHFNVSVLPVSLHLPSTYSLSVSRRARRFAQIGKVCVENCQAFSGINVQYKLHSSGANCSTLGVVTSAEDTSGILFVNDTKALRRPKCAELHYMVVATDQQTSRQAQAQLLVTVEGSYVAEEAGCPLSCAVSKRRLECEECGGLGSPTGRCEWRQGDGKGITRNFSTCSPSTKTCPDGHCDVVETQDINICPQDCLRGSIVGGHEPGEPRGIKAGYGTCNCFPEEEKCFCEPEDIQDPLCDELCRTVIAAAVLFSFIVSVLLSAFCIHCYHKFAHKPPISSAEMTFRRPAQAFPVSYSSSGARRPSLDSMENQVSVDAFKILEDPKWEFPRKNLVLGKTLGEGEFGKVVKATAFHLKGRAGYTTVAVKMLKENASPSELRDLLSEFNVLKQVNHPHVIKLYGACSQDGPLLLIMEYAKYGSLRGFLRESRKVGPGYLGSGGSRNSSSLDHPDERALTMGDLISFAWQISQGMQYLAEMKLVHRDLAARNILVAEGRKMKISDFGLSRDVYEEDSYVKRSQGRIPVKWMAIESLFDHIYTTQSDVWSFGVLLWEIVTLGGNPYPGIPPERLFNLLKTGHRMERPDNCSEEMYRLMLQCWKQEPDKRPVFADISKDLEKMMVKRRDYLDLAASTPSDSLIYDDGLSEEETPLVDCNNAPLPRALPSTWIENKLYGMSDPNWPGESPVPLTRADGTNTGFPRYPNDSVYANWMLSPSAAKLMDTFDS
Sequence of Serine/threonine-protein kinase 32B (Homo sapiens) (Q9NY57 whole entry, canonical isoform): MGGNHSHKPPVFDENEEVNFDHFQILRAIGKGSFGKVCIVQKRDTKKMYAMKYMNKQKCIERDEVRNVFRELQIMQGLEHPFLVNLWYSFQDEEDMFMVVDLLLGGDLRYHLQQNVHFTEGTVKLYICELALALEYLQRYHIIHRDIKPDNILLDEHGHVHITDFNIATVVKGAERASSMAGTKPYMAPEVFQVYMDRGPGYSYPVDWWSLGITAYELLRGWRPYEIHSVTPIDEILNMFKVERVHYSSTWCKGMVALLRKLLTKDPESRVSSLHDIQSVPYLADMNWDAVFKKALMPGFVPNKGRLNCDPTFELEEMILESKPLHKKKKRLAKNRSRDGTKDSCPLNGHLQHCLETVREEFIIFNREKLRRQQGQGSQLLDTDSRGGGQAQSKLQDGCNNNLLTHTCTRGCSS
Sequence of Epidermal growth factor receptor (Homo sapiens), P00533 [UNDEFINED MUTATION] (P00533 whole entry, looked up, stated change not applied): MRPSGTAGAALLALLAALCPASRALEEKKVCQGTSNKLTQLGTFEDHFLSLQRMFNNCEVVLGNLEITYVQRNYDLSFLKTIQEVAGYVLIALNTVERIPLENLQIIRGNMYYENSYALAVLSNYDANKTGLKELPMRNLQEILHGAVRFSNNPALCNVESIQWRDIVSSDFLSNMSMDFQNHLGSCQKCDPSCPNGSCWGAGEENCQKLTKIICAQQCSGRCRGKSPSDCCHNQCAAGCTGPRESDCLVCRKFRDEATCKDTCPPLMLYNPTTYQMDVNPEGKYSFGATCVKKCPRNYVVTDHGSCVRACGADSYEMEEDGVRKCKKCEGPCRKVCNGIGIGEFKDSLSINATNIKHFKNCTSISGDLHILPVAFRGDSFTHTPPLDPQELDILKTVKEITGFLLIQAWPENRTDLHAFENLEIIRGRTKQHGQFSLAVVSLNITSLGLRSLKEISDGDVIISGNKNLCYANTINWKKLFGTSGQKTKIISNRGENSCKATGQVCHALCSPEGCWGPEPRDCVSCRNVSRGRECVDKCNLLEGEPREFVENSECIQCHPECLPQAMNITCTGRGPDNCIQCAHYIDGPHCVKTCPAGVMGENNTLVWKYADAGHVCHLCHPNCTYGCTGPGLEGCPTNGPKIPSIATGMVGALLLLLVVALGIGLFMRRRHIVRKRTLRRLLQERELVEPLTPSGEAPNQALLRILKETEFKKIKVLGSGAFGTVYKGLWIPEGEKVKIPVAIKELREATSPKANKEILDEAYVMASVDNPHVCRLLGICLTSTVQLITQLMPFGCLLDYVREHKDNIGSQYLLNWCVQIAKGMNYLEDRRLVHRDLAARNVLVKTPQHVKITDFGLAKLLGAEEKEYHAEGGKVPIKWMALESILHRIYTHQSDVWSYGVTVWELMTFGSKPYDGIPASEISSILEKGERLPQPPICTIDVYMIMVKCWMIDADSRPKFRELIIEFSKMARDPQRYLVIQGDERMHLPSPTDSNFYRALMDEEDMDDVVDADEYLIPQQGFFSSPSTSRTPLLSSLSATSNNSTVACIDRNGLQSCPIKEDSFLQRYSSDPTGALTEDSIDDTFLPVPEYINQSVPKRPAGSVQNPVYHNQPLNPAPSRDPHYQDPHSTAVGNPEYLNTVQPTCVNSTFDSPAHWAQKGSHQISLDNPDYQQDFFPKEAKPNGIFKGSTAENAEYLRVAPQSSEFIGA
Sequence of Calcium/calmodulin-dependent protein kinase type II subunit beta (Homo sapiens) (Q13554 whole entry): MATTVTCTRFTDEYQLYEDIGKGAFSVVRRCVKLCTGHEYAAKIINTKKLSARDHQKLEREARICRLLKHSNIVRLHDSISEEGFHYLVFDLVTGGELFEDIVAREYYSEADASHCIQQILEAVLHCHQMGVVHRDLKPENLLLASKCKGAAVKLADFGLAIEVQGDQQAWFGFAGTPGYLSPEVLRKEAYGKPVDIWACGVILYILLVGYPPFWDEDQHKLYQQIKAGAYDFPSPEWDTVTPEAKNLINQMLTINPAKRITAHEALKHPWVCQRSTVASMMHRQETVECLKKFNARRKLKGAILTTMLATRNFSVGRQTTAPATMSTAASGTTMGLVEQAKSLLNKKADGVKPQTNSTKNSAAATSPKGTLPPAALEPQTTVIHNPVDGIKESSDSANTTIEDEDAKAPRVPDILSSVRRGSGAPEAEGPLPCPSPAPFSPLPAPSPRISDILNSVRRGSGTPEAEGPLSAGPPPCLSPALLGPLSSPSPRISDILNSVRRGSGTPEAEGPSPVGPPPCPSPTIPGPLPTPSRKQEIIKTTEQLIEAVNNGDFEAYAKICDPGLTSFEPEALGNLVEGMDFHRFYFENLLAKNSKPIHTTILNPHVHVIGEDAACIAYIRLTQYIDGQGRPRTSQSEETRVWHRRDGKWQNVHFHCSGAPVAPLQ

SMILES | Activity [1] [%] | Activity [2] [%] | Activity [3] [%] | Activity [4] [%] | Activity [5] [%] | Activity [6] [%] | Activity [7] [%] | Activity [8] [%] | Activity [9] [%] | Activity [10] [%]
COc1cc2nc(C)nc(N[C@H](C)c3cccc(-c4cn[nH]c4)c3)c2cc1OC | 86 | 100 | 97 | 92 | 94 | 100 | 100 | 94 | 82 | 73
COc1cc2ncnc(N[C@H](C)c3cccc4ccccc34)c2cc1OC | 92 | 95 | 96 | 100 | 76 | 100 | 96 | 99 | 13 | 100
